Experimental data taken from ChEMBL document CHEMBL1201862, “PubChem BioAssay data set” (2004).
Values belong to the molecule of their own block, whether it stands above or below them. Calls of active or inactive are those of the source.

Assays:
[1] = Late stage counterscreen for inhibitors of Trypanosoma brucei methionyl tRNA synthetase (MetRS): Luminescence-based cell-based high throughput dose response assay to identify compounds that are cytotoxic to Jurkat human T lymphocyte cells.; assay type: functional
[2] = Luminescence Cell-Based Dose Retest to Confirm Inhibitors of Cancer Stem Cells. [Related pubchem assays (depositor defined):AID2717, AID2721]; assay type: functional; details: Homo sapiens
cells [3] = details: A549
[4] = HepG2 cell cytotoxicity, dose response, cytotoxicity control, ATP luminescence, cherry-pick, set 6 (AID 1053125); assay type: functional, cell-based
Kallikrein-7 = Kallikrein-7 (Homo sapiens, UniProt P49862); assay: Fluorescence Intensity-based biochemical primary high throughput dose response assay to identify activators of kallikrein-7 (K7) zymogen.
[5] = CFTR ΔF508 corrector activity in bronchial cells, dose response, human bronchial epithelial cells, plate reader, cherry-pick, two tests (AID 743267); assay type: functional, cell-based
[6] = target: T1, Trace amine-associated receptor 1 (Homo sapiens, UniProt Q96RJ0); assay: Counterscreen for agonists of the human trace amine associated receptor 1 (hTAAR1): Fluorescence-based cell-based high throughput dose response assay to identify hTAAR1 agonist that also desensitize TAAR1 receptor response.; assay type: functional
[7] = target: T1, Trace amine-associated receptor 1; assay: Fluorescence-based cell-based high throughput dose response assay to identify agonists of the human trace amine associated receptor 1 (TAAR1).; assay type: functional
cells [8] = assay type: functional, cell-based
cells [9] = assay type: functional, cell-based; remark: listed apart in the source
[10] = target: T2, Scavenger receptor class B member 1 (Mus musculus, UniProt Q61009); assay: inhibitors of SR-BI-mediated HDL uptake, dose response, cell-based, ldlA[mSR-BI] CHO, DiI fluorescence, dry powder, set 10 (AID 624029); assay type: functional
T2 sequence (Q61009 whole entry): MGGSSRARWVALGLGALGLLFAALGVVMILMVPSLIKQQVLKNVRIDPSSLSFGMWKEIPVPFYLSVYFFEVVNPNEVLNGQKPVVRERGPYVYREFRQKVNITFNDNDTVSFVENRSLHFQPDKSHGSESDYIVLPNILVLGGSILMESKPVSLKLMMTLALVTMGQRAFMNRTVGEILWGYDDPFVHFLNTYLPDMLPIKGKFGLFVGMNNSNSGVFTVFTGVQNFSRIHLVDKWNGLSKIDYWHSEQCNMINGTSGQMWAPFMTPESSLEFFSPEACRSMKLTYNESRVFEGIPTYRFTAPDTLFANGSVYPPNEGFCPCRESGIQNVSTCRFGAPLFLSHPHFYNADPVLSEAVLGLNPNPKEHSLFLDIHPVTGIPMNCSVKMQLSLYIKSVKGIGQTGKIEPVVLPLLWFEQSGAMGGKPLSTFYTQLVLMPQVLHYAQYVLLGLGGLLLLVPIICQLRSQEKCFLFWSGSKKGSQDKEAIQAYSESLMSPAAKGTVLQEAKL

[11] = target: T2, Scavenger receptor class B member 1; assay: inhibitors of SR-BI dependent HDL uptake, dose response, ldlA[mSR-BI] CHO cells, fluorescence plate reader, dry powder, set 9 (AID 623880); assay type: functional, cell-based
[12] = HEK293 Cytotoxicity Assay Measured in Cell-Based System Using Plate Reader - 7071-01_Inhibitor_Dose_CherryPick_Activity_Set2.; assay type: functional
HEK293 = assay: HEK293T cell cytotoxicity, dose response, cytotoxicity control, ATP luminescence, cherry-pick samples (AID 687005); assay type: functional, cell-based; details: Homo sapiens;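 note: cells exposed to compound for 48 hours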

T1 sequence (Q96RJ0 whole entry): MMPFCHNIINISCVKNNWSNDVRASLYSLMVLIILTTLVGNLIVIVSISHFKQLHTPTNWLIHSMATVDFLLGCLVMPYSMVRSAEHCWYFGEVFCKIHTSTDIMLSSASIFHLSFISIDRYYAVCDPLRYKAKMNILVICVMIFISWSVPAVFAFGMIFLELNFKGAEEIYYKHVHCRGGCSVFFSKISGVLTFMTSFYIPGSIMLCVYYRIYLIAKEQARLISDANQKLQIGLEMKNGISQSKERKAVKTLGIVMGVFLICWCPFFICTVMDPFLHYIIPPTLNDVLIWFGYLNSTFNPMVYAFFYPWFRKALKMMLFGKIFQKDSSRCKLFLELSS
Sequence of Kallikrein-7 (P49862 whole entry): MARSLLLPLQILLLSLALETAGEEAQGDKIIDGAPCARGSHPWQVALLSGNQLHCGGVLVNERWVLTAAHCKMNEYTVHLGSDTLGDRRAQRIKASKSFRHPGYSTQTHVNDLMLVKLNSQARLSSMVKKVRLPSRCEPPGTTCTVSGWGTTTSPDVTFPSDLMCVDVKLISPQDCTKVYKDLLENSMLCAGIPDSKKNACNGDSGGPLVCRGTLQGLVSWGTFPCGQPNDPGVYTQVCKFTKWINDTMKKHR

SMILES: O=C(CC(=O)Nc1cccc(Cl)c1)NN=Cc1ccccc1
- IC50 [1]: > 83.3 µM (inactive)

SMILES: CCCCCCc1cc2cc(S(=O)(=O)c3ccc(C)cc3)c(=O)oc2cc1O
- AC50 [2]: 2.46 µM (active)
- AC50 (cells [3]): 37.9 µM (active)
- AC50 [4]: > 52 µM (inactive)

- EC50 (Kallikrein-7): > 69.5 µM (inactive)
SMILES: Cc1cc(=O)oc2c3c(cc(OCC(=O)NCc4ccncc4)c12)OC(C)(C)CC3

SMILES: CC(C)Oc1[nH]cnc2c3ccccc3nc1-2
- AC50 [5]: 9.38 µM (active)

SMILES: Cc1ccc2cc(CNCCc3ccccc3C)c(O)nc2c1
- IC50 [6]: 3.54 µM (active)
- EC50 [7]: 2.34 µM (active)
- EC50 (cells [8]): > 29.9 µM (inactive)
- IC50 (cells [9]): > 29.9 µM (inactive)

- AC50 [10]: 0.0313 µM (active)
- AC50 [11]: 0.0155 µM (active)
SMILES: C[C@@H]1CN([C@H](C)CO)C(=O)c2cc(NC(=O)Cc3cn(C)c4ccccc34)ccc2O[C@H]1CN(C)S(=O)(=O)c1ccc(Cl)cc1

SMILES: CCC(=O)N1[C@@H]2Cn3c(cccc3=O)[C@H]1[C@@H](C(=O)NCc1ccccc1)[C@@H]2CO
- AC50 [12]: 30.2 µM (active)
- AC50 (HEK293): 30.2 µM (active)
